Experimental data as given in patent publication US8530470B2, “Chromenone derivatives” (Astrazeneca AB, priority 2011, dated 2013).
Like-named read-outs stand apart in the source and are kept apart here.

How the values were obtained:
PI3Kδ = PI3Kδ (Homo sapiens, UniProt O00329); assay: In vitro enzyme inhibition assay (Kinase Glo), PI3Kδ; type: biochemical; settings: Test (a)
Procedure: (§1) (a) In Vitro Enzyme Inhibition Assay
(§2) The inhibition of PI3Kβ, PI3Kα, PI3Kγ and PI3Kδ was evaluated in a Kinase Glo based enzyme activity assay using human recombinant enzymes. The assay measures depletion of ATP after incubation with enzyme, PIP2 and ATP plus compound. ATP at the end of the reaction is detected by addition of Kinase Glo reagent, in this the Ultra Glo™ luciferase (Promega) uses the ATP as a substrate to catalyze the mono-oxygenation of luciferin and the generation of light. A direct relationship exists between the luminescence measured with the Kinase-Glo Plus Reagent and the amount of ATP remaining in a completed kinase reaction and luminescence is inversely related to kinase activity. Twelve different compound concentrations were tested and raw data from the inhibition of PI3Kβ, PI3Kα, PI3Kγ and PI3Kδ was plotted versus inhibitor concentration.
(§3) Compounds in 100% DMSO were added to assay plates by acoustic dispensing. PI3β was added in a Tris buffer (50 mM Tris pH7.4, 0.05% CHAPS, 2.1 mM DTT, and 10 mM MgCl2) and allowed to preincubate with compound for 20 min prior to addition of substrate solution containing PIP2 and ATP. The enzyme reaction was stopped after 80 min by the addition of Kinase Glo detection solution. […] The final concentration of DMSO, ATP and PIP2 in the assay were, 1%, 8 μM, and 80 μM respectively.
(§4) IC50 values were calculated using a log curve fitting to a non-linear regression package, fitting raw data to inhibitor concentration.

PI3Kβ = PI3Kβ (Homo sapiens, UniProt P42338); assay: In vitro enzyme inhibition assay (Kinase Glo), PI3Kβ; type: biochemical
Procedure: as §1, §2, §3, §4

[1] = tested on: phospho AKT (ser473) in MDA-MB-468 cells; assay: Detection of phospho AKT (ser473) in MDA-MB-468 cells; type: cell-based; settings: Homo sapiens, Test (b), 2 hours incubation, approximate value, read-out: IC50 versus cellular phospho AKT (ser473) in MDA-MB-468 cells
Procedure: (b) Protocol for Detection of Phospho AKT (ser473) in MDA-MB-468 Cells
MDA-MB-468 cells (human breast adenocarcinoma ATCC HTB 132) are seeded into Greiner 384 well black flat-bottomed plates by automated cell culture robot (Selec T). Cells can also be maintained manually and seeded into plates using multidrop or Wellmate. Cells seeded at 1500 cell/well in 40 μl of DMEN containing 10% FCS and 1% glutamine. Cell plates are incubated for 18 hours in a 37° C. incubator.
Compounds are dosed onto cells using an Echo acoustic dispenser, which dispenses nl quantities of compound or DMSO. Compounds are dosed in a 12 point concentration range from 30 μM top dose, 28 compounds are dosed on one plate. There are 17 DMSO only positive control wells per plate, and 16 negative control well which have been dosed with a concentration of reference compound that will knockout the pAKT signal.
Plates are incubated at 37° C. for 2 hours, cells are the fixed by the addition of 10 μl of a 3.7% Formaldehyde solution in a fume cupboard using a Wellmate.
After 30 min to allow for fixation, the fixative and media are removed and the plates washed with Proclin PBS/A using Tecan PW384 plate washer in a fume cupboard. Wells are blocked and permeabilised with the addition of 40 μl of PBS containing 0.5% Tween20 and 1% marvel using a Wellmate and incubated for 60 min at room temperature.
Permeabilisation and blocking buffer removed using Tecan PW384 plate washer, then 20 μl primary antibody solution added using a Wellmate. The primary antibody solution is a 1:500 dilution of Rabbit anti-phospho AKT Ser 473 (Cell signalling technologies catalogue number #3787) in PBS/T containing 1% marvel (dried milk powder) and incubated overnight at 4° C.
Plates are washed using a Tecan PW384 plate washer three times with Phosphate Buffered Saline+0.05% (v/v) Polysorbate20 and Proclin300 (Supelco). 20 μl of secondary antibody solution is then added to each well using a Wellmate and incubated for 1 hour at Room Temp. The secondary antibody solution is a 1:1000 dilution of Alexa Fluor 488 anti-Rabbit (Molecular Probes cat no A11008) diluted in Phosphate Buffered Saline+0.05% (v/v) Polysorbate20 containing 1% marvel. Plates are washed three times as before then […] added to each well and plates sealed with black plate sealer.
The plates are read on an Acumen reader as soon as possible. Using this system IC50 values can be generated and quality of plates determined by control wells. Reference compounds are run each time to monitor assay performance.

[2] = approximate value, read-out: IC50 versus PI3Kδ
[3] = human recombinant enzyme, Table A, read-out: PI3Kδ inhibition, IC50
[4] = Test (a), approximate value, read-out: IC50 versus PI3Kβ
[5] = Test (a), human recombinant enzyme, ATP 8 μM, PIP2 80 μM, Table A, read-out: PI3Kβ inhibition, IC50

Chain of PI3Kβ (P42338 whole entry): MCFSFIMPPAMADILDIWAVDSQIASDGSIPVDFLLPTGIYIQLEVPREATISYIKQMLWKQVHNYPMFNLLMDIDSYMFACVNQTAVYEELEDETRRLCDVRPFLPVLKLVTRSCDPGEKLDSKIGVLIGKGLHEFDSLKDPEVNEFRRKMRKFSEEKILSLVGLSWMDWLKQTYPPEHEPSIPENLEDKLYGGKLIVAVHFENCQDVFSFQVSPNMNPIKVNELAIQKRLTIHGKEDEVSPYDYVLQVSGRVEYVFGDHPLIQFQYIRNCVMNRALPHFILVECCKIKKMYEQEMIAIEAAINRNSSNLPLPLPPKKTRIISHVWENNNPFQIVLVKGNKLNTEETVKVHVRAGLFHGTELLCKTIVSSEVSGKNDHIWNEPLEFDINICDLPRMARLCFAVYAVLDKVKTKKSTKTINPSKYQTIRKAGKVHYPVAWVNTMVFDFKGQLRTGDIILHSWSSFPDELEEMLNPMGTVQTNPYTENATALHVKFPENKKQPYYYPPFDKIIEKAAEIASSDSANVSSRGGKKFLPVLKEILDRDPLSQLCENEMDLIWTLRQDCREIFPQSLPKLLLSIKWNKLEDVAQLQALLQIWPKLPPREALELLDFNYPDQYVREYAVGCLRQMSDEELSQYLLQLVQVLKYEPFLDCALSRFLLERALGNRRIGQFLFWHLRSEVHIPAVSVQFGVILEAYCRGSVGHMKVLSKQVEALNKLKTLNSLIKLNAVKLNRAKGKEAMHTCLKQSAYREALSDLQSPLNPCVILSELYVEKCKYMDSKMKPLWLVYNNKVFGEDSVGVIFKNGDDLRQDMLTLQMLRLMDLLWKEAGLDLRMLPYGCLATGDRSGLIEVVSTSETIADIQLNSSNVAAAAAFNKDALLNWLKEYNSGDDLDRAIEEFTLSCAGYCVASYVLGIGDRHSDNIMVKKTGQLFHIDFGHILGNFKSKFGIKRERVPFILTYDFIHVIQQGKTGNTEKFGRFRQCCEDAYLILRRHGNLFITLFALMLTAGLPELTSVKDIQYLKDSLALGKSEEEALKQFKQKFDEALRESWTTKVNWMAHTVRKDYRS
Chain of PI3Kβ (P27986 whole entry partner): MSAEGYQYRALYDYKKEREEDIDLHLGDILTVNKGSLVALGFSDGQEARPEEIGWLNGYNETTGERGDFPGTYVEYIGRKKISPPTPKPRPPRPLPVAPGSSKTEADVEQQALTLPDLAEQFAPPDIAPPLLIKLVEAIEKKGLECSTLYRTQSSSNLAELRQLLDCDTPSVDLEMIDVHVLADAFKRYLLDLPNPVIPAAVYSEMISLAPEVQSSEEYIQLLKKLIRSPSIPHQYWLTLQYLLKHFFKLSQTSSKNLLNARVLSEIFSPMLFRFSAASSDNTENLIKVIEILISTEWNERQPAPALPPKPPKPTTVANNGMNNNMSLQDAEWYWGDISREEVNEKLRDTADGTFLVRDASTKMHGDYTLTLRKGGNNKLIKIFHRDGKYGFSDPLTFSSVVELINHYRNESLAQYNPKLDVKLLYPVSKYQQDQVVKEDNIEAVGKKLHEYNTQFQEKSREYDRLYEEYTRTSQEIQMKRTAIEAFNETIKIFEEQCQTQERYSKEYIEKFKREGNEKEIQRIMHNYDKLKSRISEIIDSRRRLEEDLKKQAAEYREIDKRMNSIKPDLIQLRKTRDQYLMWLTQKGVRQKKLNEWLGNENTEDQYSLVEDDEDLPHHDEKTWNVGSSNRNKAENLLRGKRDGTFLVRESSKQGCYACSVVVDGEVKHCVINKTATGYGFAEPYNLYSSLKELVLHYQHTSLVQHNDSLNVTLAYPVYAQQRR
Chain of PI3Kδ (O00329 whole entry): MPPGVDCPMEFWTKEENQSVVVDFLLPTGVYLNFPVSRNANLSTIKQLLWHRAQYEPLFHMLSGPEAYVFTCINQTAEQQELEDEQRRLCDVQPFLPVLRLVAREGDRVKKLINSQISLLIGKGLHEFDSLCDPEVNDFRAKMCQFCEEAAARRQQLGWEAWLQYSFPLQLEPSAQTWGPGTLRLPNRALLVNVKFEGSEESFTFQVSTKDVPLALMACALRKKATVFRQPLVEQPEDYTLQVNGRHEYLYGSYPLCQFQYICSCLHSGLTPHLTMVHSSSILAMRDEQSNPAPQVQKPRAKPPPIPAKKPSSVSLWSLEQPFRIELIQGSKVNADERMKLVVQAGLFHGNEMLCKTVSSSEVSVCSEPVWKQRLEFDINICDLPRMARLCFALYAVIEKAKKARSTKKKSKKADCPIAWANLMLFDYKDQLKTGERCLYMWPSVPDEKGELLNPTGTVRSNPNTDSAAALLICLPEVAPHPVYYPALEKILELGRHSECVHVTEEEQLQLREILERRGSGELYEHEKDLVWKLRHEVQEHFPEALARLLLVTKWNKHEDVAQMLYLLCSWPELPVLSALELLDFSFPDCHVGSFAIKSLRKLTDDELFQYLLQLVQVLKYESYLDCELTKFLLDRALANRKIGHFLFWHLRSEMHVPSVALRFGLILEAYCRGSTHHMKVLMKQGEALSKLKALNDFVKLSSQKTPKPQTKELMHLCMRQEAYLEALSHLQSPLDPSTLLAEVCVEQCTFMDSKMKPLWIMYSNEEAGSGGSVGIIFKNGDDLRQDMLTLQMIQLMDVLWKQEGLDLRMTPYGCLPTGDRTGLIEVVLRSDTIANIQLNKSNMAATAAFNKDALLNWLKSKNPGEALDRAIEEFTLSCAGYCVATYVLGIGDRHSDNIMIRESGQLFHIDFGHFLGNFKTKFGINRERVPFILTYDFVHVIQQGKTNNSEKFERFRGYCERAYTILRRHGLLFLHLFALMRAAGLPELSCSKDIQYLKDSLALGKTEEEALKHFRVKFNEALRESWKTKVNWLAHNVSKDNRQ
Chain of PI3Kδ (P27986 whole entry partner): as the sequence (P27986 whole entry partner) above

| SMILES | IC50 (PI3Kδ; [2]) [nM] | IC50 (PI3Kδ; [3]) [nM] | IC50 (PI3Kβ; [4]) [nM] | IC50 (PI3Kβ; [5]) [nM] | IC50 [1] [nM] | IC50 (PI3Kβ; IC50 versus PI3Kβ) [nM] | IC50 (PI3Kβ; read-out: PI3Kβ inhibition, IC50) [nM] |
| --- | --- | --- | --- | --- | --- | --- | --- |
| O=C(c1cc(C2CCCN2c2cc(F)cc(F)c2)c2oc(N3CCOCC3)cc(=O)c2c1)N1CCOCC1 (racemic) [Example 1.03, 8-(1-(3,5-difluorophenyl)pyrrolidin-2-yl)-6-(morpholine-4-carbonyl)-2-morpholino-4H-chromen-4-one] | ~22 | 22 | ~12 | 12 | ~2 |  |  |
| O=C(c1cc(C2CCCN2c2ccc(F)cc2)c2oc(N3CCOCC3)cc(=O)c2c1)N1CCOCC1 (racemic) [Example 1.12, 8-(1-(4-fluorophenyl)pyrrolidin-2-yl)-6-(morpholine-4-carbonyl)-2-morpholino-4H-chromen-4-one] |  | 32 |  | 15 |  |  |  |
| CN(C)C(=O)c1cc(C2CCCN2c2ccc(F)cc2)c2oc(N3CCOCC3)cc(=O)c2c1 (racemic) [Example 2.04, 8-(1-(4-fluorophenyl)pyrrolidin-2-yl)-N,N-dimethyl-2-morpholino-4-oxo-4H-chromene-6-carboxamide] |  | 19 |  | 17 |  |  |  |
| CN(CCO)C(=O)c1cc(C2CCCN2c2cc(F)cc(F)c2)c2oc(N3CCOCC3)cc(=O)c2c1 (centres unmarked) [Example 1.01, 8-(1-(3,5-difluorophenyl)pyrrolidin-2-yl)-N-(2-hydroxyethyl)-N-methyl-2-morpholino-4-oxo-4H-chromene-6-carboxamide] |  | 16 |  |  |  |  |  |
| O=C(c1cc(C2CCCN2c2cc(F)cc(F)c2)c2oc(N3CCOCC3)cc(=O)c2c1)N1CC[S+]([O-])CC1 (centres unmarked) [Example 1.04, 8-[1-(3,5-difluorophenyl)pyrrolidin-2-yl]-2-morpholino-6-[(1-oxidothiomorpholin-4-yl)carbonyl]-4H-chromen-4-one] | ~24 | 24 | ~11 | 11 | ~5 |  |  |
| CN(C)C(=O)c1cc([C@H]2CCCN2c2cccc(F)c2)c2oc(N3CCOCC3)cc(=O)c2c1 [Example 1.06, 8-[(2R)-(1-(3-fluorophenyl)pyrrolidin-2-yl)]-N,N-dimethyl-2-morpholino-4-oxo-4H-chromene-6-carboxamide] | ~7 | 7 | ~7 | 7 | ~1 |  |  |
| O=C(c1cc([C@H]2CCCN2c2cccc(F)c2)c2oc(N3CCOCC3)cc(=O)c2c1)N1CCOCC1 [Example 1.07, 8-[(2R)-(1-(3-fluorophenyl)pyrrolidin-2-yl)]-6-(morpholine-4-carbonyl)-2-morpholino-4H-chromen-4-one] | ~5 | 5 |  | 6 | ~2 | ~6 |  |
| CN1CCN(C(=O)c2cc([C@H]3CCCN3c3cccc(F)c3)c3oc(N4CCOCC4)cc(=O)c3c2)CC1 [Example 1.10, 8-[(2R)-(1-(3-fluorophenyl)pyrrolidin-2-yl)]-6-(4-methylpiperazine-1-carbonyl)-2-morpholino-4H-chromen-4-one] | ~21 | 21 | ~8 | 8 | ~4 |  |  |
| CN(C)C(=O)c1cc(C2CCCN2c2cccc(F)c2)c2oc(N3CCOCC3)cc(=O)c2c1 (centres unmarked) [Example 2.00, 8-(1-(3-fluorophenyl)pyrrolidin-2-yl)-N,N-dimethyl-2-morpholino-4-oxo-4H-chromene-6-carboxamide] | ~12 | 12 | ~9 |  | ~2 |  | 9 |
| CN(C)C(=O)c1cc(C2CCCN2c2cc(F)cc(C#N)c2)c2oc(N3CCOCC3)cc(=O)c2c1 (centres unmarked) [Example 2.02, 8-(1-(3-cyano-5-fluorophenyl)pyrrolidin-2-yl)-N,N-dimethyl-2-morpholino-4-oxo-4H-chromene-6-carboxamide] |  | 16 |  | 13 |  |  |  |
| C[C@@H]1CN(c2cc(=O)c3cc(C(=O)N4CCOCC4)cc(C4CCCN4c4cc(F)cc(F)c4)c3o2)CCO1 (stereo partly drawn) [Example 3.00, 8-(1-(3,5-difluorophenyl)pyrrolidin-2-yl)-2-((R)-2-methylmorpholino)-6-(morpholine-4-carbonyl)-4H-chromen-4-one] | ~18 | 18 | ~11 | 11 | ~3 |  |  |
| C[C@@H]1CN(c2cc(=O)c3cc(C(=O)N4CCOCC4)cc(C4CCCN4c4ccccc4)c3o2)CCO1 (stereo partly drawn) [Example 3.01, 2-((R)-2-methylmorpholino)-6-(morpholine-4-carbonyl)-8-(1-phenylpyrrolidin-2-yl)-4H-chromen-4-one] |  | 15 |  | 14 | ~6 |  |  |

Second part, led by results:

| IC50 (PI3Kδ; [2]) [nM] | IC50 (PI3Kδ; [3]) [nM] | IC50 (PI3Kβ; [4]) [nM] | IC50 (PI3Kβ; [5]) [nM] | IC50 [1] [nM] | SMILES | IC50 (PI3Kβ; IC50 versus PI3Kβ) [nM] | IC50 (PI3Kβ; read-out: PI3Kβ inhibition, IC50) [nM] |
| --- | --- | --- | --- | --- | --- | --- | --- |
|  | 15 |  |  |  | CN(C)C(=O)c1cc(C2CCCN2c2cc(F)cc(F)c2)c2oc(N3CCOCC3)cc(=O)c2c1 (centres unmarked) [Example 1.00, 8-[1-(3,5-difluorophenyl)pyrrolidin-2-yl]-N,N-dimethyl-2-morpholino-4-oxo-4H-chromene-6-carboxamide] |  |  |
|  | 14 |  |  |  | O=C(c1cc(C2CCCN2c2cc(F)cc(F)c2)c2oc(N3CCOCC3)cc(=O)c2c1)N1CCC(O)CC1 (centres unmarked) [Example 1.02, 8-(1-(3,5-difluorophenyl)pyrrolidin-2-yl)-6-(4-hydroxypiperidine-1-carbonyl)-2-morpholino-4H-chromen-4-one] |  |  |
| ~9 | 9 | ~7 | 7 | ~1 | O=C(c1cc([C@H]2CCCN2c2cc(F)cc(F)c2)c2oc(N3CCOCC3)cc(=O)c2c1)N1CCC1 [Example 1.05, 6-(azetidine-1-carbonyl)-8-[(2R)-(1-(3,5-difluorophenyl)pyrrolidin-2-yl)]-2-morpholino-4H-chromen-4-one] |  |  |
| ~6 | 6 | ~6 | 6 | ~2 | O=C(c1cc([C@H]2CCCN2c2cccc(F)c2)c2oc(N3CCOCC3)cc(=O)c2c1)N1CCC1 [Example 1.08, 6-(azetidine-1-carbonyl)-8-[(2R)-(1-(3-fluorophenyl)pyrrolidin-2-yl)]-2-morpholino-4H-chromen-4-one] |  |  |
|  | 14 |  |  |  | CN1CCN(C(=O)c2cc([C@H]3CCCN3c3cc(F)cc(F)c3)c3oc(N4CCOCC4)cc(=O)c3c2)CC1 [Example 1.09, 8-[(2R)-(1-(3,5-difluorophenyl)pyrrolidin-2-yl)]-6-(4-methylpiperazine-1-carbonyl)-2-morpholino-4H-chromen-4-one] |  |  |
| ~15 | 15 | ~9 | 9 | ~8 | COc1cccc(N2CCC[C@@H]2c2cc(C(=O)N3CCOCC3)cc3c(=O)cc(N4CCOCC4)oc23)c1 [Example 1.11, 8-[(2R)-(1-(3-methoxyphenyl)pyrrolidin-2-yl)]-6-(morpholine-4-carbonyl)-2-morpholino-4H-chromen-4-one] |  |  |
|  | 15 |  | 10 |  | COc1cccc(N2CCCC2c2cc(C(=O)N(C)C)cc3c(=O)cc(N4CCOCC4)oc23)c1 (centres unmarked) [Example 2.01, 8-(1-(3-methoxyphenyl)pyrrolidin-2-yl)-N,N-dimethyl-2-morpholino-4-oxo-4H-chromene-6-carboxamide] |  |  |
